Source: paper PMC4303209, “A novel phosphatidylinositol 3-kinase (PI3K) inhibitor directs a potent FOXO-dependent, p53-independent cell cycle arrest phenotype characterized by the differential induction of a subset of FOXO-regulated genes” (Breast Cancer Research : BCR, 2014)

Test system: MCF-7 breast cancer cells
Test: Microarray gene expression analysis (Agilent whole human genome 4 x 44K; compound vs DMSO, LIMMA log2 fold change)
Type: cell-based
Settings: Apoptosis genes

## Oc1cccc(-c2nc(N3CCOCC3)c3oc4ncccc4c3n2)c1 [PI-103]
Gene 5371
  PML log2FC: -0.410
Gene 5436
  POLR2G log2FC: 0.401
Gene 5455
  POU3F3 log2FC: -0.338
Gene 5457
  POU4F1 log2FC: -0.488
Gene 5459
  POU4F3 log2FC: -0.095
Gene 5467
  PPARD log2FC: -0.189
Gene 5468
  PPARG log2FC: -0.320
Gene 5481
  PPID log2FC: -0.224
Gene 5499
  PPP1CA log2FC: -0.185
Gene 5515
  PPP2CA log2FC: -0.522
Gene 5516
  PPP2CB log2FC: -0.272
Gene 5519
  PPP2R1B log2FC: -0.663
Gene 5521
  PPP2R2B log2FC: 0.085
Gene 5524
  PPP2R4 log2FC: -0.318
Gene 5527
  PPP2R5C log2FC: 0.778
Gene 5533
  PPP3CC log2FC: 0.049
Gene 5534
  PPP3R1 log2FC: -0.344
Gene 5538
  PPT1 log2FC: 0.180
Gene 5551
  PRF1 log2FC: 0.035
Gene 5562
  PRKAA1 log2FC: 0.297
Gene 5563
  PRKAA2 log2FC: 0.067
Gene 5578
  PRKCA log2FC: -0.157
Gene 5580
  PRKCD log2FC: 0.117
Gene 5581
  PRKCE log2FC: -0.00329
Gene 5582
  PRKCG log2FC: 0.076
Gene 5583
  PRKCH log2FC: -0.184
Gene 5584
  PRKCI log2FC: 0.477
Gene 5586
  PKN2 log2FC: 0.513
Gene 5587
  PRKD1 log2FC: 0.547
Gene 5588
  PRKCQ log2FC: 0.186
Gene 5590
  PRKCZ log2FC: 0.565
Gene 5591
  PRKDC log2FC: 0.275
Gene 5595
  MAPK3 log2FC: -0.116
Gene 5598
  MAPK7 log2FC: -0.110
Gene 5608
  MAP2K6 log2FC: 0.357
Gene 5625
  PRODH log2FC: -0.118
Gene 5641
  LGMN log2FC: -0.107
Gene 5663
  PSEN1 log2FC: 0.372
Gene 5664
  PSEN2 log2FC: -0.390
Gene 5683
  PSMA2 log2FC: 0.170
Gene 5684
  PSMA3 log2FC: 0.144
Gene 5685
  PSMA4 log2FC: 0.470
Gene 5687
  PSMA6 log2FC: 0.068
Gene 5689
  PSMB1 log2FC: 0.009
Gene 5690
  PSMB2 log2FC: -0.432
Gene 5692
  PSMB4 log2FC: 0.171
Gene 5693
  PSMB5 log2FC: -0.219
Gene 5694
  PSMB6 log2FC: -0.080
Gene 5698
  PSMB9 log2FC: -0.100
Gene 5699
  PSMB10 log2FC: -0.116
Gene 5700
  PSMC1 log2FC: -0.009
Gene 5701
  PSMC2 log2FC: 0.279
Gene 5702
  PSMC3 log2FC: -0.185
Gene 5705
  PSMC5 log2FC: -0.314
Gene 5706
  PSMC6 log2FC: 0.515
Gene 5707
  PSMD1 log2FC: 0.029
Gene 5709
  PSMD3 log2FC: -0.074
Gene 5710
  PSMD4 log2FC: -0.036
Gene 5711
  PSMD5 log2FC: 0.189
Gene 5713
  PSMD7 log2FC: 0.00364
Gene 5714
  PSMD8 log2FC: -0.122
Gene 5715
  PSMD9 log2FC: -0.396
Gene 5716
  PSMD10 log2FC: -0.344
Gene 5717
  PSMD11 log2FC: -0.327
Gene 5718
  PSMD12 log2FC: -0.768
Gene 5720
  PSME1 log2FC: 0.313
Gene 5728
  PTEN log2FC: 0.958
Gene 5737
  PTGFR log2FC: -0.038
Gene 5740
  PTGIS log2FC: -0.013
Gene 5741
  PTH log2FC: -0.180
Gene 5743
  PTGS2 log2FC: -0.053
Gene 5747
  PTK2 log2FC: 0.040
Gene 5777
  PTPN6 log2FC: 0.257
Gene 5788
  PTPRC log2FC: -0.026
Gene 5794
  PTPRH log2FC: 0.545
Gene 5879
  RAC1 log2FC: -0.226
Gene 5883
  RAD9A log2FC: 0.679
Gene 5885
  RAD21 log2FC: 0.829
Gene 5896
  RAG1 log2FC: 0.688
Gene 5899
  RALB log2FC: 0.076
Gene 5914
  RARA log2FC: -0.310
Gene 5916
  RARG log2FC: -0.122
Gene 5921
  RASA1 log2FC: 0.472
Gene 5924
  RASGRF2 log2FC: 0.069
Gene 5925
  RB1 log2FC: 0.674
Gene 5970
  RELA log2FC: -0.351
Gene 5977
  DPF2 log2FC: 0.525
Gene 5978
  REST log2FC: 0.317
Gene 6091
  ROBO1 log2FC: 0.307
Gene 6092
  ROBO2 log2FC: 0.013
Gene 6093
  ROCK1 log2FC: 0.642
Gene 6189
  RPS3A log2FC: 0.496
Gene 6194
  RPS6 log2FC: 0.259
Gene 6195
  RPS6KA1 log2FC: -0.106
Gene 6197
  RPS6KA3 log2FC: 0.273
Gene 6198
  RPS6KB1 log2FC: 0.247
Gene 6233
  RPS27A log2FC: 0.447
Gene 6242
  RTKN log2FC: -0.055
Gene 6272
  SORT1 log2FC: 0.382
Gene 6279
  S100A8 log2FC: -0.346
Gene 6285
  S100B log2FC: -0.112
Gene 6304
  SATB1 log2FC: 0.836
Gene 6343
  SCT log2FC: -0.026
Gene 6347
  CCL2 log2FC: -0.193
Gene 6348
  CCL3 log2FC: -0.075
Gene 6352
  CCL5 log2FC: 0.070
Gene 6366
  CCL21 log2FC: -0.020
Gene 6376
  CX3CL1 log2FC: -0.245
Gene 6387
  CXCL12 log2FC: -0.262
Gene 6416
  MAP2K4 log2FC: -0.057
Gene 6418
  SET log2FC: 0.155
Gene 6422
  SFRP1 log2FC: 0.243
Gene 6423
  SFRP2 log2FC: -0.008
Gene 6424
  SFRP4 log2FC: 0.079
Gene 6425
  SFRP5 log2FC: -0.036
Gene 6453
  ITSN1 log2FC: 0.185
Gene 6461
  SHB log2FC: -0.563
Gene 6469
  SHH log2FC: -0.168
Gene 6477
  SIAH1 log2FC: 0.170
Gene 6478
  SIAH2 log2FC: -0.479
Gene 6491
  STIL log2FC: 0.014
Gene 6495
  SIX1 log2FC: -0.700
Gene 6497
  SKI log2FC: -0.565
Gene 6548
  SLC9A1 log2FC: -0.632
Gene 6586
  SLIT3 log2FC: -0.267
Gene 6591
  SNAI2 log2FC: 0.040
Gene 6608
  SMO log2FC: 0.037
Gene 6609
  SMPD1 log2FC: 0.629
Gene 6610
  SMPD2 log2FC: -0.222
Gene 6614
  SIGLEC1 log2FC: -0.395
Gene 6615
  SNAI1 log2FC: -0.868
Gene 6620
  SNCB log2FC: -0.584
Gene 6622
  SNCA log2FC: -0.028
Gene 6648
  SOD2 log2FC: 0.190
Gene 6651
  SON log2FC: -0.153
Gene 6657
  SOX2 log2FC: 0.228
Gene 6659
  SOX4 log2FC: 0.369
Gene 6662
  SOX9 log2FC: -2.014
Gene 6663
  SOX10 log2FC: -0.037
Gene 6672
  SP100 log2FC: 0.688
Gene 6688
  SPI1 log2FC: -0.418
Gene 6693
  SPN log2FC: 0.011
Gene 6714
  SRC log2FC: -0.352
Gene 6733
  SRPK2 log2FC: 0.776
Gene 6750
  SST log2FC: 0.576
Gene 6753
  SSTR3 log2FC: -0.180
Gene 6770
  STAR log2FC: -0.178
Gene 6772
  STAT1 log2FC: 0.221
Gene 6776
  STAT5A log2FC: 0.392
Gene 6777
  STAT5B log2FC: 0.109
Gene 6789
  STK4 log2FC: -0.017
Gene 6794
  STK11 log2FC: 0.00114
Gene 6812
  STXBP1 log2FC: -0.400
Gene 6832
  SUPV3L1 log2FC: 0.284
Gene 6868
  ADAM17 log2FC: 0.527
Gene 6880
  TAF9 log2FC: 0.095
Gene 6885
  MAP3K7 log2FC: 0.00173
